This assay deals with T1, Kras and SOS1 (biotin-tagged human Kras loaded with GDP, His-tagged human SOS1) (Homo sapiens, UniProt P01116, G12D).
T1 construct: made in house; host or cells: E. coli (stated for Kras only)
In words: Protein-protein interaction inhibition between Kras and SOS1 (KrasGl2D-SOS PPI) using AlphaScreen. Type of assay: binding. Conditions: AlphaScreen; biotin-tagged human Kras loaded with GDP, His-tagged human SOS1; read-out: KRAS G12D-SOS PPI IC50. The procedure, abridged: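 AlphaScreen format: Ni donor beads capture His-SOS1, streptavidin acceptor beads capture biotinylated Kras (E. coli-expressed, GDP-loaded post-purification). Excite 680 nm, read 520-620 nm.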

Data on 16 compounds can be found in patent publication US12371454B2, “Cyclic peptide compound having Kras inhibitory action” (priority 2019, dated 2025).

The structures appear in SMILES notation. Starred links: 1 amine or outer side, 2 acyl side, 3 side chain; linkers in the order of their positions; H or OH if unused. Positions of bridges follow the written chain, without caps; N, C: chain ends. Non-standard residues stand in square brackets, D forms with d. Residues, ends and D or L forms follow the SMILES beside them. *: point of attachment. hPhe(3,5-F2-4-CF3) = N[C@@H](CCc1cc(F)c(C(F)(F)F)c(F)c1)C(=O)O; hPhe(3-Cl-4-CF3) = N[C@@H](CCc1ccc(C(F)(F)F)c(Cl)c1)C(=O)O; X38 = CN([C@@H](Cc1cccc(OC(F)(F)F)c1)C(=O)[*:2])[*:1]; NMePhe(4-CF3) = CN[C@@H](Cc1ccc(C(F)(F)F)cc1)C(=O)O; NMePhe(3,4-F2) = CN[C@@H](Cc1ccc(F)c(F)c1)C(=O)O; X5 = CC(C)(C)NC(=O)COC[C@H](CC(=O)[*:1])N[*:2]; NMePhe(3-CN) = CN[C@@H](Cc1cccc(C#N)c1)C(=O)O; NMePhe(4-CN) = CN[C@@H](Cc1ccc(C#N)cc1)C(=O)O; NMePhe(4-Br) = CN[C@@H](Cc1ccc(Br)cc1)C(=O)O; NMePhe(4-Me) = CN[C@@H](Cc1ccc(C)cc1)C(=O)O; NMePhe(3-I) = CN[C@@H](Cc1cccc(I)c1)C(=O)O; NMePhe(4-F) = CN[C@@H](Cc1ccc(F)cc1)C(=O)O; NMePhe(4-I) = CN[C@@H](Cc1ccc(I)cc1)C(=O)O; NMeGly(cPent) = CN[C@H](C(=O)O)C1CCCC1; NMe4Pal = CN[C@@H](Cc1ccncc1)C(=O)O; NMeCha = CN[C@@H](CC1CCCCC1)C(=O)O; NMeI = CC[C@H](C)[C@H](NC)C(=O)O; NMeD = CN[C@@H](CC(=O)O)C(=O)O; NMeL = CN[C@@H](CC(C)C)C(=O)O; Morpholide = C1CN(*)CCO1; NMeA = CN[C@@H](C)C(=O)O; Ac5c = NC1(C(=O)O)CCCC1; Aze = O=C(O)[C@@H]1CCN1; Sar = CNCC(=O)O

T1 sequence (P01116 1-188 isoform P01116-2 G12D): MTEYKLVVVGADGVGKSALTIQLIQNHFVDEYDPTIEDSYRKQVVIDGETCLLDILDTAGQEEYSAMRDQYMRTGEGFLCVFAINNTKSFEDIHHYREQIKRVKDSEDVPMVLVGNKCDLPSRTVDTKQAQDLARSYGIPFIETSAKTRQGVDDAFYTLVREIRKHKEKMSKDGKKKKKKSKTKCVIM

`CC[C@H](C)[C@@H]1NC(=O)[C@H](CC(C)C)N(C)C(=O)C[C@@H](C(=O)N(C)C)N(C)C(=O)[C@H]([C@@H](C)CC)N(C)C(=O)C2(CCCC2)NC(=O)[C@H](Cc2ccc(F)c(F)c2)N(C)C(=O)[C@H](CCc2ccc(C(F)(F)F)c(Cl)c2)NC(=O)CN(C)C(=O)[C@H](Cc2ccc(C)cc2)N(C)C(=O)[C@@H]2CCN2C(=O)[C@H](C)N(C)C1=O` [Compound 1943] ([NMeL]I[NMeA][Aze][NMePhe(4-Me)][Sar][hPhe(3-Cl-4-CF3)][NMePhe(3,4-F2)][Ac5c][NMeI][NMeD]-NMe2; lactam N-11): the IC50 – broadly, the concentration that gives 50% inhibition – was 8 nM.
On to `CC[C@H](C)[C@@H]1NC(=O)[C@H](C)N(C)C(=O)C[C@@H](C(=O)N(C)C)N(C)C(=O)[C@H]([C@@H](C)CC)N(C)C(=O)C2(CCCC2)NC(=O)[C@H](Cc2cccc(I)c2)N(C)C(=O)[C@H](CCc2ccc(C(F)(F)F)c(Cl)c2)NC(=O)CN(C)C(=O)[C@H](Cc2ccc(C)cc2)N(C)C(=O)[C@@H]2CCN2C(=O)[C@H](C)N(C)C1=O` [Compound 1944] ([NMeA]I[NMeA][Aze][NMePhe(4-Me)][Sar][hPhe(3-Cl-4-CF3)][NMePhe(3-I)][Ac5c][NMeI][NMeD]-NMe2; lactam N-11), for which the concentration for half-maximal inhibition (IC50) worked out at 45 nM.
For `CC[C@H](C)[C@@H]1NC(=O)[C@H](C)N(C)C(=O)C[C@@H](C(=O)N(C)C)N(C)C(=O)[C@H]([C@@H](C)CC)N(C)C(=O)C2(CCCC2)NC(=O)[C@H](Cc2cccc(OC(F)(F)F)c2)N(C)C(=O)[C@H](CCc2ccc(C(F)(F)F)c(Cl)c2)NC(=O)CN(C)C(=O)[C@H](Cc2ccc(C)cc2)N(C)C(=O)[C@@H]2CCN2C(=O)[C@H](C)N(C)C1=O` [Compound 1945] ([NMeA]I[NMeA][Aze][NMePhe(4-Me)][Sar][hPhe(3-Cl-4-CF3)][X38][Ac5c][NMeI][NMeD]-NMe2; lactam N-11), the IC50 was 18 nM.
Turning to `CC[C@H](C)[C@@H]1NC(=O)[C@H](C)N(C)C(=O)C[C@@H](C(=O)N(C)C)N(C)C(=O)[C@H]([C@@H](C)CC)N(C)C(=O)C2(CCCC2)NC(=O)[C@H](Cc2ccc(F)cc2)N(C)C(=O)[C@H](CCc2ccc(C(F)(F)F)c(Cl)c2)NC(=O)CN(C)C(=O)[C@H](Cc2ccc(C(F)(F)F)cc2)N(C)C(=O)[C@@H]2CCN2C(=O)[C@H](C)N(C)C1=O` [Compound 1951] ([NMeA]I[NMeA][Aze][NMePhe(4-CF3)][Sar][hPhe(3-Cl-4-CF3)][NMePhe(4-F)][Ac5c][NMeI][NMeD]-NMe2; lactam N-11), the IC50 was 9.9 nM.
Take `CC[C@H](C)[C@@H]1NC(=O)[C@H](CC(C)C)N(C)C(=O)C[C@@H](C(=O)N(C)C)N(C)C(=O)[C@H]([C@@H](C)CC)N(C)C(=O)C2(CCCC2)NC(=O)[C@H](Cc2ccc(F)cc2)N(C)C(=O)[C@H](CCc2cc(F)c(C(F)(F)F)c(F)c2)NC(=O)CN(C)C(=O)[C@H](Cc2ccc(C)cc2)N(C)C(=O)[C@@H]2CCN2C(=O)[C@H](C)N(C)C1=O` [Compound 1952] ([NMeL]I[NMeA][Aze][NMePhe(4-Me)][Sar][hPhe(3,5-F2-4-CF3)][NMePhe(4-F)][Ac5c][NMeI][NMeD]-NMe2; lactam N-11): the IC50 was 8.1 nM.
For `CC[C@H](C)[C@@H]1NC(=O)[C@H](C)N(C)C(=O)C[C@@H](C(=O)N(C)C)N(C)C(=O)[C@H]([C@@H](C)CC)N(C)C(=O)C2(CCCC2)NC(=O)[C@H](Cc2ccc(I)cc2)N(C)C(=O)[C@H](CCc2ccc(C(F)(F)F)c(Cl)c2)NC(=O)CN(C)C(=O)[C@H](Cc2ccc(C)cc2)N(C)C(=O)[C@@H]2CCN2C(=O)[C@H](C)N(C)C1=O` [Compound 1953] ([NMeA]I[NMeA][Aze][NMePhe(4-Me)][Sar][hPhe(3-Cl-4-CF3)][NMePhe(4-I)][Ac5c][NMeI][NMeD]-NMe2; lactam N-11), the 50% inhibitory concentration (IC50) came to 51 nM.
With `CC[C@H](C)[C@@H]1NC(=O)[C@H](C)N(C)C(=O)C[C@@H](C(=O)N(C)C)N(C)C(=O)[C@H]([C@@H](C)CC)N(C)C(=O)C2(CCCC2)NC(=O)[C@H](Cc2ccc(C#N)cc2)N(C)C(=O)[C@H](CCc2ccc(C(F)(F)F)c(Cl)c2)NC(=O)CN(C)C(=O)[C@H](Cc2ccc(C)cc2)N(C)C(=O)[C@@H]2CCN2C(=O)[C@H](C)N(C)C1=O` [Compound 1959] ([NMeA]I[NMeA][Aze][NMePhe(4-Me)][Sar][hPhe(3-Cl-4-CF3)][NMePhe(4-CN)][Ac5c][NMeI][NMeD]-NMe2; lactam N-11), the concentration for half-maximal inhibition (IC50) worked out at 5.2 nM.
The result for `CC[C@H](C)[C@@H]1NC(=O)[C@H](CC(C)C)N(C)C(=O)C[C@@H](COCC(=O)NC(C)(C)C)NC(=O)[C@H]([C@@H](C)CC)N(C)C(=O)C2(CCCC2)NC(=O)[C@@H]2CCCN2C(=O)[C@H](CCc2ccc(C(F)(F)F)c(Cl)c2)NC(=O)CN(C)C(=O)[C@H](Cc2ccc(C)cc2)N(C)C(=O)[C@@H]2CCN2C(=O)[C@H](C)N(C)C1=O` [Compound 1960] ([NMeL]I[NMeA][Aze][NMePhe(4-Me)][Sar][hPhe(3-Cl-4-CF3)]P[Ac5c][NMeI]; linker N-C via X5) reads 56 nM; that for `CC[C@H](C)[C@@H]1NC(=O)[C@H](CC(C)C)N(C)C(=O)C[C@@H](C(=O)N(C)C)N(C)C(=O)[C@H]([C@@H](C)CC)N(C)C(=O)C2(CCCC2)NC(=O)[C@H](Cc2ccncc2)N(C)C(=O)[C@H](CCc2ccc(C(F)(F)F)c(Cl)c2)NC(=O)CN(C)C(=O)[C@H](Cc2ccc(C)cc2)N(C)C(=O)[C@@H]2CCN2C(=O)[C@H](C)N(C)C1=O` [Compound 1962] ([NMeL]I[NMeA][Aze][NMePhe(4-Me)][Sar][hPhe(3-Cl-4-CF3)][NMe4Pal][Ac5c][NMeI][NMeD]-NMe2; lactam N-11), 1.4 nM.
On to `CC[C@H](C)[C@@H]1NC(=O)[C@H](CC(C)C)N(C)C(=O)C[C@@H](C(=O)N(C)C)N(C)C(=O)[C@H]([C@@H](C)CC)N(C)C(=O)C2(CCCC2)NC(=O)[C@H](Cc2ccc(Br)cc2)N(C)C(=O)[C@H](CCc2ccc(C(F)(F)F)c(Cl)c2)NC(=O)CN(C)C(=O)[C@H](Cc2ccc(C)cc2)N(C)C(=O)[C@@H]2CCN2C(=O)[C@H](C)N(C)C1=O` [Compound 1964] ([NMeL]I[NMeA][Aze][NMePhe(4-Me)][Sar][hPhe(3-Cl-4-CF3)][NMePhe(4-Br)][Ac5c][NMeI][NMeD]-NMe2; lactam N-11), for which the IC50 was found to be 36 nM.
Turning to `CC[C@H](C)[C@@H]1NC(=O)[C@H](CC(C)C)N(C)C(=O)C[C@@H](C(=O)N(C)C)N(C)C(=O)[C@H]([C@@H](C)CC)N(C)C(=O)C2(CCCC2)NC(=O)[C@H](Cc2cccc(OC(F)(F)F)c2)N(C)C(=O)[C@H](CCc2ccc(C(F)(F)F)c(Cl)c2)NC(=O)CN(C)C(=O)[C@H](Cc2ccc(C)cc2)N(C)C(=O)[C@@H]2CCN2C(=O)[C@H](C)N(C)C1=O` [Compound 1970] ([NMeL]I[NMeA][Aze][NMePhe(4-Me)][Sar][hPhe(3-Cl-4-CF3)][X38][Ac5c][NMeI][NMeD]-NMe2; lactam N-11), the half-inhibitory concentration (IC50) came out at 52 nM.
As for `CC[C@H](C)[C@@H]1NC(=O)[C@H](CC(C)C)N(C)C(=O)C[C@@H](C(=O)N(C)C)N(C)C(=O)[C@H]([C@@H](C)CC)N(C)C(=O)[C@H](C)NC(=O)[C@H](Cc2ccncc2)N(C)C(=O)[C@H](CCc2ccc(C(F)(F)F)c(Cl)c2)NC(=O)CN(C)C(=O)[C@H](Cc2ccc(C)cc2)N(C)C(=O)[C@@H]2CCN2C(=O)[C@H](C)N(C)C1=O` [Compound 1973] ([NMeL]I[NMeA][Aze][NMePhe(4-Me)][Sar][hPhe(3-Cl-4-CF3)][NMe4Pal]A[NMeI][NMeD]-NMe2; lactam N-11), the half-maximal inhibitory concentration (IC50) came to 7.1 nM.
On to `CC[C@H](C)[C@@H]1NC(=O)[C@H](CC(C)C)N(C)C(=O)C[C@@H](C(=O)N2CCOCC2)N(C)C(=O)[C@H]([C@@H](C)CC)N(C)C(=O)C2(CCCC2)NC(=O)[C@@H]2CCCN2C(=O)[C@H](CCc2ccc(C(F)(F)F)c(Cl)c2)NC(=O)CN(C)C(=O)[C@H](CC2CCCCC2)N(C)C(=O)CN(C)C(=O)CN(C)C1=O` [Compound 1979] ([NMeL]I[Sar][Sar][NMeCha][Sar][hPhe(3-Cl-4-CF3)]P[Ac5c][NMeI][NMeD]-Morpholide; lactam N-11), for which the IC50 came out at 0.64 nM.
On to `CC[C@H](C)[C@@H]1NC(=O)[C@H](C)N(C)C(=O)C[C@@H](C(=O)N(C)C)N(C)C(=O)[C@H]([C@@H](C)CC)N(C)C(=O)C2(CCCC2)NC(=O)[C@H](Cc2cccc(C#N)c2)N(C)C(=O)[C@H](CCc2ccc(C(F)(F)F)c(Cl)c2)NC(=O)CN(C)C(=O)[C@H](Cc2ccc(C)cc2)N(C)C(=O)[C@@H]2CCN2C(=O)[C@H](C)N(C)C1=O` [Compound 1981] ([NMeA]I[NMeA][Aze][NMePhe(4-Me)][Sar][hPhe(3-Cl-4-CF3)][NMePhe(3-CN)][Ac5c][NMeI][NMeD]-NMe2; lactam N-11), for which the IC50 worked out at 5.1 nM.
The value for `CC[C@H](C)[C@@H]1NC(=O)[C@H](CC(C)C)N(C)C(=O)C[C@@H](C(=O)N(C)C)N(C)C(=O)[C@H](C2CCCC2)N(C)C(=O)[C@H](C(C)C)NC(=O)[C@H](Cc2ccncc2)N(C)C(=O)[C@H](CCc2ccc(C(F)(F)F)c(Cl)c2)NC(=O)CN(C)C(=O)[C@H](CC2CCCCC2)N(C)C(=O)[C@@H]2CCN2C(=O)[C@H](C)N(C)C1=O` [Compound 1982] ([NMeL]I[NMeA][Aze][NMeCha][Sar][hPhe(3-Cl-4-CF3)][NMe4Pal]V[NMeGly(cPent)][NMeD]-NMe2; lactam N-11) was 47 nM; that for `CC[C@H](C)[C@@H]1NC(=O)[C@H](C)N(C)C(=O)C[C@@H](C(=O)N(C)C)N(C)C(=O)[C@H]([C@@H](C)CC)N(C)C(=O)C2(CCCC2)NC(=O)[C@H](Cc2ccc(F)cc2)N(C)C(=O)[C@H](CCc2cc(F)c(C(F)(F)F)c(F)c2)NC(=O)CN(C)C(=O)[C@H](Cc2ccc(C(F)(F)F)cc2)N(C)C(=O)[C@@H]2CCN2C(=O)[C@H](C)N(C)C1=O` [Compound 1986] ([NMeA]I[NMeA][Aze][NMePhe(4-CF3)][Sar][hPhe(3,5-F2-4-CF3)][NMePhe(4-F)][Ac5c][NMeI][NMeD]-NMe2; lactam N-11) was 11 nM.
